Molecules are shown by their SMILES.

The assay concerns the target T1, human OX2R (Homo sapiens, UniProt O43614).
T1 construct: expressed in transfected cells; host or cells: Chinese hamster ovary (CHO) cells, kept under G418 selection
T1 sequence (O43614 1-444): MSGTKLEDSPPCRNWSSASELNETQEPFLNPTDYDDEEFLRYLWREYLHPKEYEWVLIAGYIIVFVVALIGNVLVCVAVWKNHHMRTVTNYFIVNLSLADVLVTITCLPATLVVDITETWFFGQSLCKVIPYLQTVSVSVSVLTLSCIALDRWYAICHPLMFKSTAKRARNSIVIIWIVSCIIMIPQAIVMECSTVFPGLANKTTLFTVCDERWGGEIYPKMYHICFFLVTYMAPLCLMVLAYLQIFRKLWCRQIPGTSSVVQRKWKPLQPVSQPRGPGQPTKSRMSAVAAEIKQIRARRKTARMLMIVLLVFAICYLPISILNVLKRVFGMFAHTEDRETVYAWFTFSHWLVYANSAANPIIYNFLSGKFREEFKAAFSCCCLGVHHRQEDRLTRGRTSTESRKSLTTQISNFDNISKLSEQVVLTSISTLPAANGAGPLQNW
As to the kind of experiment: IPOne (IP-1 accumulation) assay of orexin receptor agonist activity in CHO cells expressing human OX2R. The following applies: for IC50: CHO cells expressing human OX2R, IP-One assay, 2 hours incubation, four parameter logistic fit, read-out: hOX2R_IP IC50; for Emax: CHO, percent activity at maximum tested concentration, relative to reference compound at 1 uM (100% activity) for human OX2R. The class given is cell-based. From the text:
The utility of the compounds in accordance with the present invention as orexin receptor OX1R and/or OX2R agonists may be readily determined without undue experimentation by methodology well known in the art. Both the OX1R and/or OX2R G-coupled protein receptors (GPCRs) couple through the Gαq signaling pathway, which ultimately promotes calcium mobilization via inositol triphosphate (IP3) production. […] The utility of the compounds in accordance with the present invention as orexin receptor OX1R and/or OX2R agonists may be determined utilizing this assay.
In a typical experiment, the OX1 and OX2 receptor agonist activity is determined in accordance with the following general experimental method. Chinese hamster ovary (CHO) cells expressing human OX1R and/or the human OX2R were grown in Iscove's modified DMEM containing glutaMAX™, 1% G418, 100 U/mL penicillin, 100 μg/mL streptomycin and 10% heat-inactivated qualified fetal bovine serum (FBS). […] During this incubation, IP-one detection reagents were prepared (38:1:1 lysis buffer:D2:AB-cryptate reagents).
For each compound, data were fit to a four parameter logistic fit (ActivityBase software) and the EC50 was reported as the inflection point of the resulting curve. Percent effect for each test compound was determined as the percentage of sample raw value/mean max effect, where the mean max effect was derived from the mean raw value of 32 control wells per assay plate (using Orexin A (cat #003-30) at 1 μM for human OX1R and a reference compound at 1 uM with 100% activity previously established by comparison to Orexin A for human OX2R). The intrinsic orexin receptor agonist activity of a compound which may be used in the present invention may be determined by these assays.

As for `CC(C)C(=O)N1[C@H](C)CN(S(=O)(=O)c2ccccc2)C[C@@H]1C(=O)NCc1ccc(OC(C)(F)F)cc1` (relative stereo) [Example 19-4, cis-N-(4-(1,1-difluoroethoxy)benzyl)-1-isobutyryl-6-methyl-4-(phenylsulfonyl)piperazine-2-carboxamide], the IC50 (usually the point on the concentration scale where inhibition reaches its midpoint) turned out to be 70.2 nM and the Emax – broadly, the maximal effect, on the per cent scale that the assay sets – is 101%.
On to `CC(C)C(=O)N1[C@H](C)CN(S(=O)(=O)c2ccccc2)C[C@@H]1C(=O)NCc1ccc(-c2ccco2)c(C#N)c1` (relative stereo) [Example 47-2, cis-N-(3-cyano-4-(furan-2-yl)benzyl)-1-isobutyryl-6-methyl-4-(phenylsulfonyl)piperazine-2-carboxamide], for which the 50% inhibitory concentration (IC50) is 144 nM and the maximal effect (Emax) was determined as 98.3%.
For `O=C(NCc1ccc2ccccc2c1)C1CN(S(=O)(=O)c2ccccc2)CCN1C(=O)c1cncs1` (stereo not shown) [Example 10-10, N-(naphthalen-2-ylmethyl)-4-(phenylsulfonyl)-1-(thiazole-5-carbonyl)piperazine-2-carboxamide] the same measures were 11700 nM and 93.9%.
Consider `CC(C)C(=O)N1C(C)CN(S(=O)(=O)c2ccccc2)CC1C(=O)NCc1ccc(-c2cccnc2)cc1` (stereo not shown) [Example 42-2, 1-isobutyryl-6-methyl-4-(phenylsulfonyl)-N-(4-(pyridin-3-yl)benzyl)piperazine-2-carboxamide], for which the IC50 was determined as 1010 nM and the Emax came to 20.6%.
Take `CC(C)C(=O)N1[C@H](C)CN(S(=O)(=O)c2ccccc2)C[C@@H]1C(=O)NCc1cnc(-c2ccco2)cn1` (single isomer, unassigned) [Example 35, cis-N-((5-(furan-2-yl)pyrazin-2-yl)methyl)-1-isobutyryl-6-methyl-4-(phenylsulfonyl)piperazine-2-carboxamide]: the IC50 is 504 nM and the maximal effect (Emax) worked out at 99.7%.
Turning to `CC(C)C(=O)N1[C@H](C)CN(S(=O)(=O)c2ccccc2)C[C@@H]1C(=O)NCc1ccc2ccccc2c1` (relative stereo) [Example 19-1, cis-1-isobutyryl-6-methyl-N-(naphthalen-2-ylmethyl)-4-(phenylsulfonyl)piperazine-2-carboxamide], the 50% inhibitory concentration (IC50) was determined as 245 nM and the Emax was 100%.
For `CCCC(=O)N1CCN(S(=O)(=O)c2ccccc2)CC1C(=O)NCc1ccc2ccccc2c1` (stereo not shown) [Example 10-3, 1-butyryl-N-(naphthalen-2-ylmethyl)-4-(phenylsulfonyl)piperazine-2-carboxamide] the same measures were 12200 nM and 87.8%.
With `Cc1c(CNC(=O)[C@H]2CN(S(=O)(=O)c3ccccc3)C[C@@H](C)N2C(=O)C(C)C)ccc(-c2ccco2)c1F` (relative stereo) [Example 51, cis-N-(3-fluoro-4-(furan-2-yl)-2-methylbenzyl)-1-isobutyryl-6-methyl-4-(phenylsulfonyl)piperazine-2-carboxamide], the IC50 is 85.7 nM and the Emax stood at 99.8%.
With `Cc1ccc(S(=O)(=O)N2CCN(C(=O)c3cccs3)C(C(=O)NCc3ccc4ccccc4c3)C2)cc1` (stereo not shown) [Example 89-1, N-(naphthalen-2-ylmethyl)-1-(thiophene-2-carbonyl)-4-tosylpiperazine-2-carboxamide], the half-inhibitory concentration (IC50) amounted to 5720 nM and the Emax came out at 60.1%.
For `CC(C)C(=O)N1[C@H](C)CN(S(=O)(=O)c2ccccc2)C[C@@H]1C(=O)NCc1ccc(-n2cccn2)cc1` (relative stereo) [Example 19-9, cis-N-(4-(1H-pyrazol-1-yl)benzyl)-1-isobutyryl-6-methyl-4-(phenylsulfonyl)piperazine-2-carboxamide] the same measures were 409 nM and 99.2%.
With `CC(C)C(=O)N1[C@H](C)CN(S(=O)(=O)c2ccccc2)C[C@@H]1C(=O)NCc1ccc(-c2ccccn2)cc1` (relative stereo) [Example 42-1, cis-1-isobutyryl-6-methyl-4-(phenylsulfonyl)-N-(4-(pyridin-2-yl)benzyl)piperazine-2-carboxamide], the concentration for half-maximal inhibition (IC50) worked out at 121 nM and the Emax is 100%.
For `O=C(NCc1ccc2ccccc2c1)C1CN(S(=O)(=O)c2ccccc2)CCN1C(=O)c1ccsc1` (stereo not shown) [Example 10-8, N-(naphthalen-2-ylmethyl)-4-(phenylsulfonyl)-1-(thiophene-3-carbonyl)piperazine-2-carboxamide], the IC50 is 4670 nM and the maximal response (Emax) came out at 90%.
As for `O=C(NCc1ccc2ccccc2c1)C1CN(S(=O)(=O)c2ccccc2)CCN1C(=O)c1ccco1` (stereo not shown) [Example 10-9, 1-(furan-2-carbonyl)-N-(naphthalen-2-ylmethyl)-4-(phenylsulfonyl)piperazine-2-carboxamide], the IC50 was 6170 nM and the Emax was found to be 93.8%.
Turning to `CC(C)C(=O)N1[C@@H](C(=O)NCc2ccc(-c3ccco3)cc2)CN(S(=O)(=O)c2ccccc2)C[C@H]1C(F)(F)F` (relative stereo) [Example 78, cis-N-(4-(furan-2-yl)benzyl)-1-isobutyryl-4-(phenylsulfonyl)-6-(trifluoromethyl)piperazine-2-carboxamide], the half-maximal inhibitory concentration (IC50) was 2670 nM and the Emax came to 97.1%.
For `Cc1cc(-c2ccco2)c(F)cc1CNC(=O)[C@@H]1CN(S(=O)(=O)c2ccccc2)C[C@H](C)N1C(=O)C(C)C` (relative stereo) [Example 47-5, cis-N-(5-fluoro-4-(furan-2-yl)-2-methylbenzyl)-1-isobutyryl-6-methyl-4-(phenylsulfonyl) piperazine-2-carboxamide], the concentration for half-maximal inhibition (IC50) turned out to be 14.6 nM and the Emax came to 106%.
For the compound `CC(C)C(=O)N1[C@H](C)CN(S(=O)(=O)c2ccccc2)C[C@@H]1C(=O)NCc1ccc(-c2ccco2)cn1` (relative stereo) [Example 23, cis-N-((5-(furan-2-yl)pyridin-2-yl)methyl)-1-isobutyryl-6-methyl-4-(phenylsulfonyl)piperazine-2-carboxamide], the concentration for half-maximal inhibition (IC50) turned out to be 108 nM and the maximum response (Emax) was 98.9%.
For `O=C(NCc1ccc2ccccc2c1)C1CN(S(=O)(=O)c2ccccc2)CCN1C(=O)c1nccs1` (stereo not shown) [Example 10-7, N-(naphthalen-2-ylmethyl)-4-(phenylsulfonyl)-1-(thiazole-2-carbonyl)piperazine-2-carboxamide] the same measures were 1870 nM and 98.9%.
On to `Cc1cccc(S(=O)(=O)N2CCN(C(=O)c3cccs3)C(C(=O)NCc3ccc4ccccc4c3)C2)c1` (stereo not shown) [Example 89-2, 4-[(3-methylphenyl)sulfonyl]-N-[(naphthalen-2-yl)methyl]-1-(thiophene-2-carbonyl)piperazine-2-carboxamide], for which the IC50 worked out at 2670 nM and the Emax was found to be 92%.
In the same order, the values of `CC(C)C(=O)N1[C@H](C)CN(S(=O)(=O)c2ccccc2)C[C@@H]1C(=O)NCc1ccc(-c2ccccc2)cc1` (relative stereo) [Example 19-3, cis-N-([1,1′-biphenyl]-4-ylmethyl)-1-isobutyryl-6-methyl-4-(phenylsulfonyl)piperazine-2-carboxamide] are 68.9 nM and 87.1%.
In the case of `CC(C)C(=O)N1C(C)CN(S(=O)(=O)c2ccccc2)CC1C(=O)NCc1ccc(-c2ccncc2)cc1` (stereo not shown) [Example 42-3, 1-isobutyryl-6-methyl-4-(phenylsulfonyl)-N-(4-(pyridin-4-yl)benzyl)piperazine-2-carboxamide], the half-inhibitory concentration (IC50) was 1010 nM and the maximal response (Emax) turned out to be 4.39%.
